Earlier results in publication PMC7388056 (Biomacromolecules, 2020).

System: integrins

Substance: arginine–glycine–aspartic acid [RGD]
- effectiveness relative to parent proteins, in words: orders-of-magnitude less effective than its parent proteins
